Residues, ends and D or L forms follow the SMILES beside them.
Columns and labels:
tic disorders [1] = test: Test Case 1: a case with improved tic disorder; type: in vivo, human; details: for effect of earlier drug therapy on tic symptoms (history): patient history before theanine
Source text: <Test Case 1> A Case with Improved Tic Disorder
Patient: (Sixth grade elementary school student);
Chief complaint: shaking hands and head
History: Since being elected as temporary class representative of the fourth grade class of elementary school, the patient had blinking eyes and subsequently shook their face and shoulders; thus, they visited a nearby hospital and received diazepam. […] In the following year, around the time of moving to Osaka, the patient suffered a relapse of symptoms of shaking their face and shoulders again and thus visited the pediatric department of O hospital and received haloperidol.

Tourette's disorder = test: Test Case 2: a case with improved Tourette's disorder; type: in vivo, human
Source text: <Test Case 2> A Case with Improved Tourette's Disorder
Patient: child; body weight: 43 kg
The tics were milder when they were in school or with others, and were more frequently observed in the presence of only their family. (in the third semester of the sixth grade), they visited our clinic worrying about bullying at their junior high school. […] In addition, the patient continuously moved their hands and legs and tended to be restlessly absent-mindedly hyperactive.
Psychosocial case history: The patient was always crying due to inherent sensitivity; thus, their parent felt anxious about child-rearing. They were severely afraid of strangers and timid, and often cried for fear. […] They often cut into others' conversation and was too talkative. Their parent can get along with their younger sibling casually, but is feeling awkwardness and pain with the patient due to the lack of closeness. Their parent is not nagging so much, and seems to accept the patient. Clinical course: The patient was diagnosed as having Tourette's disorder, and the disease was explained to their parents. To alleviate the symptoms, haloperidol (trade name: Serenase (trademark); Dainippon Pharmaceutical Co. Ltd.) was used.
The administration of theanine is scheduled to be continued until the end of puberty. The patient has joined their junior high school track club, and has tics, although unnoticeable. The patient has become a bit disobedient and often falls silent, but is highly motivated with study.

mice = type: in vivo; details: oral administration of 5 g/kg
tic disorders [2] = test: Test Case 3: a case with improved tic disorder; type: in vivo, human; details: patient; 0.8 g theanyl-theanine daily for 30 days
Source text: <Test Case 3> A Case with Improved Tic Disorder
Patient: child; height 121 cm; body weight 20 kg
Chief complaint: repetitive guttural
They were diagnosed as having tics.
The parent disciplined the child by scolding. They were pressed with child-rearing and housework and had little free time; thus, they were always nagging due to frustration. In July 1990, the patient developed involuntary movements of shaking their shoulders up and down, and in addition, repetitive guttural. In Sep. 6, 1990, the patient first visited the clinic. The affected child was thin with abdominal palpitation and spasms of the musculus rectus abdominis. Since October, the patient received 8 tablets combined with theanyl-theanine in example 5 (0.8 g theanyl-theanine) daily for 30 days.

SMILES: CN1C(=O)CN=C(c2ccccc2)c2cc(Cl)ccc21 [diazepam]
- effect of earlier drug therapy on tic symptoms (history) (tic disorders [1]; patient): no effect

SMILES: O=C(CCCN1CCC(O)(c2ccc(Cl)cc2)CC1)c1ccc(F)cc1 [haloperidol]
- adverse effects of earlier drug therapy (history) (tic disorders [1]; patient, increased dosage, patient history): speech defect
- effect of earlier drug therapy on tic symptoms (history) (tic disorders [1]; patient): insufficient effect
- adverse effects of earlier drug therapy (Tourette's disorder; patient, 0.25 mg to 0.5 mg): drowsiness was caused as an adverse effect
- symptoms of Tourette's disorder under earlier drug therapy (Tourette's disorder; patient, dosage gradually increased from 0.25 mg to 0.5 mg): alleviated the symptoms such as tics and restlessness

SMILES: CCNC(=O)CC[C@H](N)C(=O)O [theanine, L-theanine]
- death or abnormality in general conditions and body weight (mice): neither death nor abnormality in general conditions and body weight was observed
- adverse effects (tic disorders [1]; in vivo): no adverse effects
- adverse effects (Tourette's disorder; in vivo): no adverse effects

SMILES: CCNC(=O)CC[C@H](NC(=O)[C@@H](N)CCC(=O)NCC)C(=O)O [theanyl-theanine] (H-Glu(NHEt)-Glu(NHEt)-OH)
- adverse effects (tic disorders [2]): no adverse effects
